Data set [1] deals with T1, Amylin 3(a) receptor (human calcitonin receptor (CTa) and RAMP-3) (Homo sapiens, UniProt O60896+P30988).
T1 construct: expressed in transfected cells; host or cells: BHK570 cells, stably transfected with a CRE-luciferase reporter
Nature of the data set: Luciferase assay (III), BHK Amylin 3(a)//CRE-luc cells. The format is cell-based. The following applies: BHK cells with Amylin 3(a) receptor and CRE luciferase reporter, 4 hours incubation; read-out: Potency Luciferase. In short, it runs like this:
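Read-out is CRE-driven luciferase luminescence, taken 30 min after LucLite addition at room temperature. Compounds were incubated 4 h at 37° C in assay medium (10% FBS, 10 mM Hepes, pH 7,4). The cell line is BHK570 co-transfected with human calcitonin receptor CTa and RAMP-3, seeded overnight before use.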
On the technique in general: Reporter assays use an easily measured gene product as a stand-in for the process of interest.

Data set [2] in a line: Assay (V) PK - determination of T½ in mini-pig. The format is in vivo. The following applies: minipig, sc, terminal plasma half-life, subcutaneous, approx 2 nmol/kg, male Göttingen mini-pigs. In short, it runs like this:
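Male Göttingen mini-pigs (5–12 months, 7–35 kg) got a single s.c. neck injection of approx 2 nmol/kg; plasma sampled via central venous catheter predose to 240 h (some to 288 h). Amylin measured by sandwich ELISA; T½ = ln 2/λz from non-compartmental analysis of individual profiles.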

Data set [3] is described as follows: Assay (VI) PK - determination of T½ in rat. The format is in vivo. Conditions: sc, terminal plasma half-life, subcutaneous, approx 20 nmol/kg, male Sprague Dawley rats. The protocol:
Assay (VI) PK—Determination OF T½ in Rat
T½ is the terminal half-life=ln 2/λz of a compound in plasma. λz is the first order rate constant associated with the terminal (log-linear) portion of the plasma concentration-time curve and is estimated by linear regression of time vs. log concentration.
T½ values of the amylin analogues of the invention is determined by pharmacokinetic studies in Sprague Dawley male rats, from Taconic Europe and the principles of laboratory animal care are followed.
An acclimatization period of approximately 7 days was allowed before the animals entered the study. At start of the acclimatization period the rats were in the weight range of 300-400 g. The rats had permanent catheters inserted in a. carotis which were used for blood sampling.
The studies were conducted in an animal room which was illuminated to give a cycle of approx 12 hours light and 12 hours darkness. The animals were housed individually due to the catheters and had food and water ad lib. The animals were weighed on the days of dosing.
In the present studies the test substances were administered subcutaneously in approx 20 nmol/kg dose. The animals received a single subcutaneous injection to the neck using a 25 G needle with syringe. Each test substance was given to typically three but in some cases two or four animals.
A full plasma concentration-time profile, employing 8-10 sampling points, was obtained from each animal. In example blood samples were collected according to the following schedule:
After subcutaneous administration:
Predose (0), 0.5, 1, 1.5, 2, 4, 6, 12, 24, 48 and 72 hours after injection. At each sampling time, 0.08 to 0.10 ml of blood was drawn from each animal. The blood samples were taken via the catheter.
The blood samples were collected into EDTA test tubes. Blood samples were kept on ice for max 20 min. before centrifugation. Plasma was separated using centrifugation (i.e. at 4° C., 10 min., 1500 G) and was immediately transferred to Micronic tubes or PCR plates. Approximately 40 μl plasma was transferred and was stored at −20° C. until assayed. The plasma samples were assayed for the content of amylin using an ELISA assay.
The plasma concentration-time profiles were analysed by a non-compartmental pharmacokinetic analysis (NCA) using WinNonlin Professional 5.0 (Pharsight Inc., Mountain View, Calif., USA). NCA was performed using the individual plasma concentration-time profiles from each animal. T½ is the terminal half-life=ln 2/λz and was determined from λz, the first order rate constant associated with the terminal (log-linear) portion of the curve, estimated by linear regression of time vs. log concentration.
ELISA Plasma Assay for Amylin Quantification
The human amylin ELISA is a monoclonal antibody-based sandwich immunoassay for determining amylin levels in human plasma. The capture antibody recognizes human amylin, amylin acid (deamidated amylin), a 1-20 fragment of amylin, but not reduced amylin. The detection antibody binds to reduced or unreduced human amylin but not amylin acid and is complexed with streptavidin-alkaline phosphatase. The substrate, 4-methylumbelliferyl phosphate, is applied to the completed sandwich and the fluorescent signal, monitored at 355 nm/460 nm, is proportional to the amount of amylin present in the sample.

One may read the half-life as the time needed for the level to fall by half in the phase considered. High values mean slow loss, low ones fast loss.

*1 amine or outer side, *2 acyl side, *3 side chain or, on linkers, in order; H or OH if unused. Where a SMILES comes first, the peptide text is derived from it. Bridges are numbered along the chain shown (N, C = ends). The star is where a group is joined. C20 diacid = O=C(O)CCCCCCCCCCCCCCCCCCC(=O)*; C18 diacid = O=C(O)CCCCCCCCCCCCCCCCC(=O)*; γGlu = O=C(O)[C@H](CCC(=O)[*:2])N[*:1]

T1 sequence (O60896 24-148): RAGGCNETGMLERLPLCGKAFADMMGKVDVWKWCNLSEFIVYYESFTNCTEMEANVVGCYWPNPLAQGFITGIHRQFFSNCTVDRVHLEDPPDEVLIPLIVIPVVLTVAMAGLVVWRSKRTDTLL
T1 sequence (P30988 25-474): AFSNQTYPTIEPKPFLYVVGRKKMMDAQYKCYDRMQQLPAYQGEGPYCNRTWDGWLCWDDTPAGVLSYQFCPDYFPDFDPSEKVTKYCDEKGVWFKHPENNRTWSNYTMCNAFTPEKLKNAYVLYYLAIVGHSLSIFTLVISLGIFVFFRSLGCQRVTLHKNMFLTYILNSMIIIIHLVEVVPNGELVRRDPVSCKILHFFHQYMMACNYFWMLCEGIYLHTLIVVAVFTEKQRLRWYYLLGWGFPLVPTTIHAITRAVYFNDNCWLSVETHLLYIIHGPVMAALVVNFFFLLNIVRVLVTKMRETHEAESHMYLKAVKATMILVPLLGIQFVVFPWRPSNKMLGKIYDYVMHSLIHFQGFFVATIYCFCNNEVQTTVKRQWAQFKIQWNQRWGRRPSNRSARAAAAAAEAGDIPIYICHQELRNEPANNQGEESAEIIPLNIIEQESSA

Take `CC[C@H](C)[C@H](NC(=O)[C@@H]1CCCN1C(=O)CNC(=O)[C@H](Cc1ccccc1)NC(=O)[C@H](CC(N)=O)NC(=O)[C@H](CC(N)=O)NC(=O)[C@H](CO)NC(=O)[C@H](CO)NC(=O)[C@H](Cc1c[nH]cn1)NC(=O)[C@H](Cc1c[nH]cn1)NC(=O)[C@H](CC(C)C)NC(=O)[C@H](Cc1ccccc1)NC(=O)[C@H](CC(N)=O)NC(=O)[C@H](C)NC(=O)[C@H](CC(C)C)NC(=O)[C@H](CCCNC(=N)N)NC(=O)[C@H](CCC(N)=O)NC(=O)[C@@H](NC(=O)[C@H](C)NC(=O)[C@@H]1CSSC[C@H](NC(=O)[C@H](CCCCN)NC(=O)CC[C@H](NC(=O)CCCCCCCCCCCCCCCCCCC(=O)O)C(=O)O)C(=O)N[C@@H](CC(N)=O)C(=O)N[C@@H]([C@@H](C)O)C(=O)N[C@@H](C)C(=O)N[C@@H]([C@@H](C)O)C(=O)N1)[C@@H](C)O)C(=O)N[C@@H](CC(C)C)C(=O)N1CCC[C@H]1C(=O)N1CCC[C@H]1C(=O)N[C@H](C(=O)N[C@@H](CC(N)=O)C(=O)N[C@H](C(=O)NCC(=O)N[C@@H](CO)C(=O)N[C@@H](CC(N)=O)C(=O)N[C@H](C(=O)N[C@@H](Cc1ccc(O)cc1)C(N)=O)[C@@H](C)O)C(C)C)[C@@H](C)O` [Example 5, N-alpha-[(S)-4-Carboxy-4-(19-carboxynonadecanoylamino)butyryl]-[His17]-pramlintide] ({C20 diacid-γGlu}-KCNTATCATQRLANFLHHSSNNFGPILPPTNVGSNTY-NH2; disulfide 2-7): in data set [1], the EC50 was 0.1 nM. In addition, the half-life in data set [2] (in vivo) is 70 h; in data set [3] (in vivo), 16 h.
As to `CC[C@H](C)[C@H](NC(=O)[C@@H]1CCCN1C(=O)CNC(=O)[C@H](Cc1ccccc1)NC(=O)[C@H](CC(N)=O)NC(=O)[C@H](CC(N)=O)NC(=O)[C@H](CO)NC(=O)[C@H](CO)NC(=O)[C@H](Cc1c[nH]cn1)NC(=O)[C@H](Cc1c[nH]cn1)NC(=O)[C@H](CC(C)C)NC(=O)[C@H](Cc1ccccc1)NC(=O)[C@H](CC(N)=O)NC(=O)[C@H](C)NC(=O)[C@H](CC(C)C)NC(=O)[C@H](CCCNC(=N)N)NC(=O)[C@H](CCC(N)=O)NC(=O)[C@@H](NC(=O)[C@H](C)NC(=O)[C@@H]1CSSC[C@H](NC(=O)CC[C@H](NC(=O)CCCCCCCCCCCCCCCCC(=O)O)C(=O)O)C(=O)N[C@@H](CC(N)=O)C(=O)N[C@@H]([C@@H](C)O)C(=O)N[C@@H](C)C(=O)N[C@@H]([C@@H](C)O)C(=O)N1)[C@@H](C)O)C(=O)N[C@@H](CC(C)C)C(=O)N1CCC[C@H]1C(=O)N1CCC[C@H]1C(=O)N[C@H](C(=O)N[C@@H](CC(N)=O)C(=O)N[C@H](C(=O)NCC(=O)N[C@@H](CO)C(=O)N[C@@H](CC(N)=O)C(=O)N[C@H](C(=O)N[C@@H](Cc1ccc(O)cc1)C(N)=O)[C@@H](C)O)C(C)C)[C@@H](C)O` [Example 10, N-alpha-[(S)-4-Carboxy-4-(17-carboxyheptadecanoylamino)butyryl]-[His17]-pramlintide (2-37)] ({C18 diacid-γGlu}-CNTATCATQRLANFLHHSSNNFGPILPPTNVGSNTY-NH2; disulfide 1-6), the EC50 in data set [1] is 0.08 nM. For the same compound, the half-life is 66 h in data set [2] and 11 h in data set [3].
The like results for `CC[C@H](C)[C@H](NC(=O)[C@@H]1CCCN1C(=O)CNC(=O)[C@H](Cc1ccccc1)NC(=O)[C@H](CC(N)=O)NC(=O)[C@H](CC(N)=O)NC(=O)[C@H](CO)NC(=O)[C@H](CO)NC(=O)[C@H](Cc1c[nH]cn1)NC(=O)[C@H](CO)NC(=O)[C@H](CC(C)C)NC(=O)[C@H](Cc1ccccc1)NC(=O)[C@H](CC(N)=O)NC(=O)[C@H](C)NC(=O)[C@H](CC(C)C)NC(=O)[C@H](CCCNC(=N)N)NC(=O)[C@H](CCC(N)=O)NC(=O)[C@@H](NC(=O)[C@H](C)NC(=O)[C@@H]1CSSC[C@H](NC(=O)[C@H](CCCCN)NC(=O)[C@H](CCCNC(=N)N)NC(=O)CC[C@H](NC(=O)CCCCCCCCCCCCCCCCCCC(=O)O)C(=O)O)C(=O)N[C@@H](CC(N)=O)C(=O)N[C@@H]([C@@H](C)O)C(=O)N[C@@H](C)C(=O)N[C@@H]([C@@H](C)O)C(=O)N1)[C@@H](C)O)C(=O)N[C@@H](CC(C)C)C(=O)N1CCC[C@H]1C(=O)N1CCC[C@H]1C(=O)N[C@H](C(=O)N[C@@H](CC(N)=O)C(=O)N[C@H](C(=O)NCC(=O)N[C@@H](CO)C(=O)N[C@@H](CC(N)=O)C(=O)N[C@H](C(=O)N[C@@H](Cc1ccc(O)cc1)C(N)=O)[C@@H](C)O)C(C)C)[C@@H](C)O` [Example 20, N-alpha-[(S)-4-Carboxy-4-(19-carboxynonadecanoylamino)butyryl]-Arg-[Ser17]-pramlintide] ({C20 diacid-γGlu}-RKCNTATCATQRLANFLSHSSNNFGPILPPTNVGSNTY-NH2; disulfide 3-8) were, in that order, 0.1 nM, 41 h and 10 h.
As for `CC[C@H](C)[C@H](NC(=O)[C@@H]1CCCN1C(=O)CNC(=O)[C@H](Cc1ccccc1)NC(=O)[C@H](CC(N)=O)NC(=O)[C@H](CC(N)=O)NC(=O)[C@H](CO)NC(=O)[C@H](CO)NC(=O)[C@H](Cc1c[nH]cn1)NC(=O)[C@H](CCCNC(=N)N)NC(=O)[C@H](CC(C)C)NC(=O)[C@H](Cc1ccccc1)NC(=O)[C@H](CC(N)=O)NC(=O)[C@H](C)NC(=O)[C@H](CC(C)C)NC(=O)[C@H](CCCNC(=N)N)NC(=O)[C@H](CCC(N)=O)NC(=O)[C@@H](NC(=O)[C@H](C)NC(=O)[C@@H]1CSSC[C@H](NC(=O)[C@H](CCCCN)NC(=O)[C@H](CCCNC(=N)N)NC(=O)CC[C@H](NC(=O)CCCCCCCCCCCCCCCCCCC(=O)O)C(=O)O)C(=O)N[C@@H](CC(N)=O)C(=O)N[C@@H]([C@@H](C)O)C(=O)N[C@@H](C)C(=O)N[C@@H]([C@@H](C)O)C(=O)N1)[C@@H](C)O)C(=O)N[C@@H](CC(C)C)C(=O)N1CCC[C@H]1C(=O)N1CCC[C@H]1C(=O)N[C@H](C(=O)N[C@@H](CC(N)=O)C(=O)N[C@H](C(=O)NCC(=O)N[C@@H](CO)C(=O)N[C@@H](CC(N)=O)C(=O)N[C@H](C(=O)N[C@@H](Cc1ccc(O)cc1)C(N)=O)[C@@H](C)O)C(C)C)[C@@H](C)O` [Example 22, N-alpha-[(S)-4-Carboxy-4-(19-carboxynonadecanoylamino)butyryl]-Arg-[Arg17]-pramlintide] ({C20 diacid-γGlu}-RKCNTATCATQRLANFLRHSSNNFGPILPPTNVGSNTY-NH2; disulfide 3-8), the EC50 in data set [1] came to 0.1 nM. Moreover, the half-life in data set [2] is 34 h; in data set [3], 13 h.
